Source: patent US7338777B2, “Method for determining the biological activity of defibrotide” (Gentium SPA, priority 2001, dated 2008)

Biological target: T1, human plasmin (Homo sapiens, UniProt P00747)
T1 construct: precursors of plasmin, such as plasminogen
Assay: indirect enzymatic determination: release of pNA from chromogenic substrate S-2251 by plasmin in the presence of defibrotide
Format: biochemical
Experimental: 150 μl of each of the standard defibrotide solutions described above are taken and introduced into the wells of the microplates.
The plasmin solution is then prepared rapidly by adding, at 0° C., 3.8 ml of TRIS-HCl buffer to the test tube containing 0.2 ml of human plasmin solution. The whole is agitated gently until dissolution has occurred, and 50 μl are taken and introduced into the wells of the microplate, followed by 50 μl of S-2251 for each well.
The microplate, placed in the MRX TCII reader set at 37° C., is agitated for approximately 10 seconds; the absorbance readings are carried out at 405 nm, at the initial time t0 and subsequently every two minutes in the interval from 10 to 20 minutes, in accordance with the enzymatic kinetics program.
The microplate, placed in the MRX TCII reader set at 37° C., is agitated for approximately 10 seconds; the absorbance readings are taken at 405 nm, at the initial time t0 and subsequently every 5 minutes for a period from the 20th to the 50th minute, in accordance with the enzymatic kinetics program.
The absorbance values measured are then processed (Excel and Sigma Plot programs), tabulated and represented in a graph (regression lines).
In addition, considering the data reported in Table 1, 2 and 3, we have also calculated the μM/min of p-Nitroaniline released by plasmin acting on the chromogenic substrate in the presence of Defibrotide.
The “b” values reported in Tables 1, 2 and 3, namely the slopes of the kinetics curves, represent the ΔAbs/min×1000 (usually, just to avoid numbers with commas, the scale for the spectrophotometric readings in FIGS. 3, 4 and 5 was multiplied by 1000; as a consequence, the real spectrophotometric absorbance reading is obtained dividing “b” by 1,000).
Knowing from the literature, the Molar Extinction Coefficient for p-Nitroaniline (8,270 M^−1cm^−1, corresponding to 0.008270 Unit of Absorbance per μM of p-Nitroaniline) it follows that: 1μM p-Nitroaniline: 0.008270 (Absorbance)=X μM p-Nitroaniline: Spectrophotometric Reading (“b”/1000)
In this way we have calculated the micromoles of p-Nitroaniline released in the previous experiments, whose value are reported in table 4.

[1] = Mean±Standard Deviation of 5 replications, X = concentration of defibrotide (μg/ml)
[2] = Replication 2, X = concentration of defibrotide (μg/ml)
[3] = Replication 3, X = concentration of defibrotide (μg/ml)
[4] = Replication 4, X = concentration of defibrotide (μg/ml)
[5] = Replication 5, X = concentration of defibrotide (μg/ml)

T1 sequence (P00747 97-580 limits assumed): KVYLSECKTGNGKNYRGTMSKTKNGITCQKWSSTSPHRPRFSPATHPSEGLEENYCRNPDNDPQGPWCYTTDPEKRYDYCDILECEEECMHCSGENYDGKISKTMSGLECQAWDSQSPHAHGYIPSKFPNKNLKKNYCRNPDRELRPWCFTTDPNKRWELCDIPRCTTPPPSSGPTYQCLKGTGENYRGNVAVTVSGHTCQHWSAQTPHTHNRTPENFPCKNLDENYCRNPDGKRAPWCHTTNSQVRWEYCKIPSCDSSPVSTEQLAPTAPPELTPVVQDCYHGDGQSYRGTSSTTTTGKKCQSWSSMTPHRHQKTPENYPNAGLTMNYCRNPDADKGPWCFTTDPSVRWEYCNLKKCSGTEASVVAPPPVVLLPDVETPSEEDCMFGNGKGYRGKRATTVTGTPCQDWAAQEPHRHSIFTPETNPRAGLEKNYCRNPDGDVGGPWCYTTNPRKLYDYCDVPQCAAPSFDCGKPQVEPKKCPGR
T1 sequence (P00747 581-810 limits assumed): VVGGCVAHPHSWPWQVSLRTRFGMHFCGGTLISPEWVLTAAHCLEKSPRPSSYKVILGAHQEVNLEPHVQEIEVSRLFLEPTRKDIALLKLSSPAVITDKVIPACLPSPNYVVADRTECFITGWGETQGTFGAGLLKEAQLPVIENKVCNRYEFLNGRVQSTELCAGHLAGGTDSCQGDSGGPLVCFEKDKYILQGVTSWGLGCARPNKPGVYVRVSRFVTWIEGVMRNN

How did the “a of pNA(μM/min)=a+blog X” value [1] turn out when Defibrotide was run?
Its value is 0.6908±0.0291 μM/min.

And the “b of pNA(μM/min)=a+blog X” value [1]?
Its value is 0.3140±0.0437.

What about the “slope b of regression μM/min p-Nitroaniline = a + b log X” value (Replication 1, X = concentration of defibrotide (μg/ml)) of the same substance?
The value was 0.3820.

What about the “intercept a of regression μM/min p-Nitroaniline = a + b log X” value (Replication 1, X = concentration of defibrotide (μg/ml), 37° C., 405 nm) of the same substance?
Its value is 0.7317 μM/min.

And the “intercept a of regression μM/min p-Nitroaniline = a + b log X” value [2]?
Its value is 0.6625 μM/min.

What about the “slope b of regression μM/min p-Nitroaniline = a + b log X” value [2] of the same substance?
Its value is 0.2907.

What about the “intercept a of regression μM/min p-Nitroaniline = a + b log X” value [3] of the same substance?
Its value is 0.6708 μM/min.

What about the “slope b of regression μM/min p-Nitroaniline = a + b log X” value [3] of the same substance?
Its value is 0.2741.

And the “intercept a of regression μM/min p-Nitroaniline = a + b log X” value [4]?
Its value is 0.6792 μM/min.

And the “slope b of regression μM/min p-Nitroaniline = a + b log X” value [4]?
The value was 0.2907.

What about the “intercept a of regression μM/min p-Nitroaniline = a + b log X” value [5] of the same substance?
The value was 0.7100 μM/min.

What about the “slope b of regression μM/min p-Nitroaniline = a + b log X” value [5] of the same substance?
The value was 0.3323.

And the “effect on rate of release of compound X (pNA) by plasmin from its substrate” value (plasmin-evaluation tests with substrate A1-A2-A3-X)?
Its value is “increases the rate of release of compound X proportionally to its concentration”.
